Reference: publication PMC5485725, “QueF-Like, a Non-Homologous Archaeosine Synthase from the Crenarchaeota” (Biomolecules, 2017)

Target: T1, QueF-like (QueF-L) from Pyrobaculum calidifontis (Pyrobaculum calidifontis, UniProt A3MSP1)
T1 construct: codon-optimized synthetic gene in FactorXa/LIC vector (pLBI14), expressed in E. coli BL21(DE3); N-terminal His6 tag cut by Factor Xa; starts at Met1 (primer encodes MLKVSK..., ends ...PPVYI); decamer
T1 sequence (A3MSP1 1-109): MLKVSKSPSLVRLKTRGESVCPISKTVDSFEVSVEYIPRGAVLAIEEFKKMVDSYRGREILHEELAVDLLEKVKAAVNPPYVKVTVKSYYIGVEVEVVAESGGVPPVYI
Test: UV-Vis titration of thioimide absorbance at […] nm
Assay type: binding
Settings: read-out: apparent KD

N#Cc1c[nH]c2nc(N)[nH]c(=O)c12 [preQ0] showed a Kd of 8 µM.
